Measured values from US20220213092A1, “BICYCLIC PYRAZOLE BRUTON'S TYROSINE KINASE INHIBITORS” (AbbVie Inc., priority 2020, published 2022).

Target: T1, BTK (Homo sapiens, UniProt Q06187)
T1 construct: purchased Nanosyn, Santa Clara, Calif; host or cells: 293HEK
Experiment: BTK kinase electrophoretic mobility shift assay (MSA)
Assay type: biochemical
Details: 50 μM ATP, 0.5 nM BTK enzyme (Nanosyn-293HEK, WT), 3 hours at 25° C.; all examples except 50, 51, 62 and 63; read-out: BTK IC50
Protocol: Kinase activity, unless otherwise indicated, was measured in vitro using an electrophoretic mobility shift assay (MSA). The phosphorylation of a peptide substrate by BTK and other kinases was measured. The kinase reactions were assembled in a total volume of 25 μL per well in 384 well plates. The following was added to each well: compound buffer (or control); enzyme buffer; and substrate buffer, as further described below.
The terminated reactions were analyzed using a 12 channel LABCHIP® 3000 microfluidic detection instrument (available from Caliper Life Sciences, Waltham, Mass.). […] Change in the relative fluorescence intensity of the substrate and product peaks was the parameter measured, reflecting enzyme activity. In the presence of an inhibitor, the ratio between product and substrate was altered. The signal of the product decreased, while the signal of the substrate increased. Capillary electrophoregrams (RDA acquisition files) were analyzed using HTS Well Analyzer software (available from Caliper Life Sciences, Waltham, Mass.).
Activity in each sample was determined as the product to sum ratio (PSR): P/(S+P), where P was the peak height of the product peptide and S was the peak height of the substrate peptide. For each compound, enzyme activity was measured at various concentrations (12 concentrations of compound spaced by 3× dilution intervals). Negative control samples (00 inhibition in the absence of inhibitor) and positive control samples (10000 inhibition, in the presence of 20 mM EDTA) were assembled in replicates of four and were used to calculate 00 inhibition values for each inhibitor at each concentration. Percent inhibition (Pinh) was determined using following equation: Pinh=(PSR0%−PSRinh)/(PSR0%−PSR100%)*100, where PSRinh was the product sum ratio in the presence of inhibitor, PSR0% was the average product sum ratio in the absence of inhibitor and PSR100% was the average product sum ratio in 100%−inhibition control samples.
The IC50 values of inhibitors were determined by 4 parameter sigmoidal dose response model fitting of the inhibition curves (Pinh versus inhibitor concentration) using XLfit® 4 software (available from IDBS, Boston, Mass.).

T1 sequence (Q06187 whole entry): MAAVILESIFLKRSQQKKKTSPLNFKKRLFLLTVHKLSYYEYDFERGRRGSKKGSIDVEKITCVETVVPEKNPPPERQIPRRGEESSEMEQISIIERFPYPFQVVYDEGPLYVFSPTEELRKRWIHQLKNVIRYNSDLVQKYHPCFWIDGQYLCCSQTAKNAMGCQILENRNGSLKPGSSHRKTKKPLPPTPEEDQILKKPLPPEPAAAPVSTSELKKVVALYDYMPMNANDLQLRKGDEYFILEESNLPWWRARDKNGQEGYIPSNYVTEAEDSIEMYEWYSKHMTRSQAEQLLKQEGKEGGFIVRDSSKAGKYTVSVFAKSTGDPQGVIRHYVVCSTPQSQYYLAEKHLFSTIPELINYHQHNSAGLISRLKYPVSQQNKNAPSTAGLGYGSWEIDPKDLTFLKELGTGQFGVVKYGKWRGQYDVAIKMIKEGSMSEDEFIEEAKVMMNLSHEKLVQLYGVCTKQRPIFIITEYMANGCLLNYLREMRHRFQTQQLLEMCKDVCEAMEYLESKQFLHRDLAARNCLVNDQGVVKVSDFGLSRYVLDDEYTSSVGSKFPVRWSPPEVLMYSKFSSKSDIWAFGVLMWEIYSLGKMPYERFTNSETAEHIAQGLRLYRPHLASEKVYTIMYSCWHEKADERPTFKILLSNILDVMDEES

Compound | IC50
C=CC(=O)N1CCC[C@H]([C@@H]2CCNc3c2nn(-c2ccc(Oc4ccccc4)cc2)c3C(N)=O)C1 (racemic) [Example 8, (7SR)-2-(4-phenoxyphenyl)-7-[(3RS)-1-(prop-2-enoyl)piperidin-3-yl]-4,5,6,7-tetrahydro-2H-pyrazolo[4,3-b]pyridine-3-carboxamide] | 4.7 nM
C=CC(=O)N1CCC[C@@H]([C@@H]2CCNc3c2nn(-c2ccc(Oc4ccccc4)cc2)c3C(N)=O)C1 (racemic) [Example 9, (7RS)-2-(4-phenoxyphenyl)-7-[(3RS)-1-(prop-2-enoyl)piperidin-3-yl]-4,5,6,7-tetrahydro-2H-pyrazolo[4,3-b]pyridine-3-carboxamide] | 13.8 nM
C=CC(=O)N1CCN([C@H]2CCNc3c2nn(-c2ccc(Oc4ccccc4)cc2)c3C(N)=O)[C@@H](C)C1 (single isomer, unassigned) [Example 31] | 88.3 nM
C=CC(=O)N1CCN([C@@H]2CCNc3c2nn(-c2ccc(Oc4ccccc4)cc2)c3C(N)=O)[C@@H](C)C1 (single isomer, unassigned) [Example 32] | 18.1 nM
CC#CC(=O)N1CCN([C@H]2CCNc3c2nn(-c2ccc(Oc4ccccc4)cc2)c3C(N)=O)CC1 (single isomer, unassigned) [Example 39] | 5.8 nM
CC#CC(=O)N1CCN([C@@H]2CCNc3c2nn(-c2ccc(Oc4ccccc4)cc2)c3C(N)=O)CC1 (single isomer, unassigned) [Example 40] | 48.6 nM
C=CC(=O)N1CCC([C@@H]2CCNc3c2nn(-c2ccc(Oc4ccccc4)cc2)c3C(N)=O)CC1 [Example 5, (7S)-2-(4-phenoxyphenyl)-7-[1-(prop-2-enoyl)piperidin-4-yl]-4,5,6,7-tetrahydro-2H-pyrazolo[4,3-b]pyridine-3-carboxamide] | 10.5 nM
C=CC(=O)N1CCN([C@H]2CCNc3c2nn(-c2ccc(Oc4ccccc4)cc2)c3C(N)=O)CC1 [Example 7, (7S)-2-(4-phenoxyphenyl)-7-[4-(prop-2-enoyl)piperazin-1-yl]-4,5,6,7-tetrahydro-2H-pyrazolo[4,3-b]pyridine-3-carboxamide] | 11.5 nM
C=CC(=O)N1CCC(C2CCNc3c2nn(-c2ccc(Oc4ccccc4)cc2OC)c3C(N)=O)CC1 (centres unmarked) [Example 14, 2-(2-methoxy-4-phenoxyphenyl)-7-[1-(prop-2-enoyl)piperidin-4-yl]-4,5,6,7-tetrahydro-2H-pyrazolo[4,3-b]pyridine-3-carboxamide] | 37.5 nM

The next compounds have a lower IC50 than those just listed; values first:

IC50 | Compound
4.07 nM | CC#CC(=O)N1CCC(C2CCNc3c2nn(-c2ccc(Oc4ccccc4)cc2)c3C(N)=O)CC1 (centres unmarked) [Example 2, 7-[1-(but-2-ynoyl)piperidin-4-yl]-2-(4-phenoxyphenyl)-4,5,6,7-tetrahydro-2H-pyrazolo[4,3-b]pyridine-3-carboxamide]
3.78 nM | C=CC(=O)N1CCC(C2CCNc3c2nn(-c2ccc(Oc4ccccc4)cc2)c3C(N)=O)C1 (mixture of isomers) [Example 10, 2-(4-phenoxyphenyl)-7-[1-(prop-2-enoyl)pyrrolidin-3-yl]-4,5,6,7-tetrahydro-2H-pyrazolo[4,3-b]pyridine-3-carboxamide]
2.72 nM | C=CC(=O)N1CCC(C2CCNc3c2nn(-c2ccc(Oc4ccc(OC)cc4)cc2)c3C(N)=O)CC1 (centres unmarked) [Example 17, 2-[4-(4-methoxyphenoxy)phenyl]-7-[1-(prop-2-enoyl)piperidin-4-yl]-4,5,6,7-tetrahydro-2H-pyrazolo[4,3-b]pyridine-3-carboxamide]
2.25 nM | C=CC(=O)N1CCC(C2CCNc3c2nn(-c2ccc(Oc4ccc(F)cc4)cc2)c3C(N)=O)CC1 (centres unmarked) [Example 11, 2-[4-(4-fluorophenoxy)phenyl]-7-[1-(prop-2-enoyl)piperidin-4-yl]-4,5,6,7-tetrahydro-2H-pyrazolo[4,3-b]pyridine-3-carboxamide]
1.84 nM | C=CC(=O)N1CCC(C2CCNc3c2nn(-c2ccc(Oc4ccc(F)cc4F)cc2)c3C(N)=O)CC1 (centres unmarked) [Example 13, 2-[4-(2,4-difluorophenoxy)phenyl]-7-[1-(prop-2-enoyl)piperidin-4-yl]-4,5,6,7-tetrahydro-2H-pyrazolo[4,3-b]pyridine-3-carboxamide]
